Experiments:
[1] = test system: human melanoma cells lacking INK4a/ARF (WM2664); test: TOXILIGHT assay (adenylate kinase release); format: cell-based; details: 16 hours treatment, then Carbo 50 μM, DOX 122 nM or Etop 2.5 μM 8 hours
Description: (§1) Cellular cytotoxicity was assessed using the TOXILIGHT™ Bioassay kit (Lonza, Basel, Switzerland) which measures cytolysis by quantifying the release of adenylate kinase into the culture media. […] 100 μL of TOXILIGHT™ reagent is added and incubated for 5 minutes and read in a luminometer at 1 second/well.

[2] = test system: RB-null human melanoma cells (A2058); test: TOXILIGHT assay (adenylate kinase release); format: cell-based; details: 16 hours treatment, then Carbo 50 μM, DOX 122 nM or Etop 2.5 μM 8 hours
Description: as §1

[3] = test system: telomerized human diploid fibroblast (tHDF) cells (HS68); test: Cell proliferation assay (WST-1 or CellTiter-Glo) after chemotherapeutic; details: HS68, viability after 7 days; for chemoprotective effects against doxorubicin, carboplatin, etoposide (cell viability, CellTiter-Glo): 16 hour pretreatment, DOX 122 nM, Carbo 50 μM or Etop 2.5 μM 8 hours
Description: (§7) In some embodiments, cell viability is assessed by performing a assay using 2-(4-iodophenyl)-3-(4-nitrophenyl)-5-(2,4-disulfophenyl)-2H-tetrazolium monosodium salt (WST-1), such as described further hereinbelow. In the WST-1 assay, WST-1 is cleaved by a mitochondrial reductase present in viable cells to form a colored product (i.e., formazan) that can be detected by measuring absorbance at a particular wavelength (e.g., 420-480 nm). […] The CellTiter-Glo® assay (CTG assay; Promega, Madison, Wis., United States of America) measures cell viability by measuring ATP concentration in cell lysate.
(§8) Cell lines: Telomerized human diploid fibroblast (tHDF) cells (HS68) were cultured in Dulbecco's Modified Eagle Medium (DMEM) +10% fetal bovine serum (FBS) with any additional compounds. The same conditions were used for A2058 and WM2664, human melanoma cell lines with known RB-pathway mutations: A2058 is RB-null, whereas WM2664 lacks INK4a/ARF. Thus, A2058 cells are CDK4/6-independent, while WM2664 cells are CDK4/6-dependent. Cells were cultured in DMEM+10% FBS.
(§9) Cell proliferation assays: Cell proliferation assays were performed by seeding 1×10^3 cells per well in a 96-well tissue culture plate in 100 μL of growth medium. Cells were treated as indicated with compound from Table 1 and doxorubicin, etoposide or carboplatin. Following treatment, cells were allowed to recover for 7 days in normal growth medium. At the end of the recovery period, cell number was quantified using the VVST-1 cell proliferation assay (TaKaRa Bio USA, Madison, Wis., United States of America) or the CellTiter-Glo® assay (CTG; Promega, Madison, Wis., United States of America). Data is presented as absorbance at 450 nm for the WST assays or Relative Light Units (RLU) for the CTG assays.

[4] = test system: telomerized human diploid fibroblast (tHDF) cells (HS68); test: Cell cycle analysis (BrdU and propidium iodide, flow cytometry); format: cell-based; details: HS68 (CDK4/6-dependent), 24 hours treatment
Description: (§2) Cells were cultured in DMEM+10% FBS.
(§3) Cell cycle analysis: Cell cycle analysis was performed using BrdU and propidium iodide (both from BD Biosciences Pharmigen, San Jose, Calif., United States of America) following the manufacturer's protocol. Cells were treated for 24 hours with a test compound at a desired dose prior to 15 minutes BrdU pulse, cell harvesting, fixation, staining, and analysis by flow cytometry.
(§4) Histograms of dose-response curves of PD332991 and 2BrIC in HS68, WM2664 and A2058 cells were analyzed using Mod-Fit™ software from Verity Software House (Topsham, Me., United States of America).

[5] = test system: HS68 cells; test: TOXILIGHT assay (adenylate kinase release); format: cell-based, human; details: pretreatment, then Carbo 50 μM, DOX 122 nM or Etop 2.5 μM 8 hours
Description: as §1

[6] = test system: human melanoma cells lacking INK4a/ARF (WM2664); test: γH2AX assay (DNA damage, flow cytometry); format: cell-based; details: 16 hours pretreatment, then 8 hours Carbo, Etop or Dox
Source text: (§5) Reduction in DNA damage effected by the test compound or maintenance of cell viability effected by the test compound in cells treated with cytotoxic compounds can be assessed in any suitable manner. For example, DNA damage in cell populations can be assessed by performing a gamma-H2AX assay as described further herein below. Mammalian cells respond to agents that introduce DNA double-stranded breaks with the immediate and substantial phosphorylation of histone H2AX. Thus, detection of the phosphorylated H2AX, termed gamma-H2AX (γH2AX), using commercially available antibodies, can serve as a measure of DNA damage in cells.
as §2
(§6) γH2AX assay: For γH2AX assay, cells were treated with a dose response of PD332991 or 2BrIC for 24 hours. Cells were fixed, permeabilized, and stained with anti-γH2AX antibody as per γH2AX Flow Kit (Millipore, Billerica, Mass., United States of America). γH2AX levels were assessed by flow cytometry.

[7] = test system: telomerized human diploid fibroblast (tHDF) cells (HS68); test: γH2AX assay (DNA damage, flow cytometry); format: cell-based; details: 16 hours pretreatment, then 8 hours Carbo, Etop or Dox
Source text: as §5, §2, §6

[8] = test system: human melanoma cells lacking INK4a/ARF (WM2664); test: Cell cycle analysis (BrdU and propidium iodide, flow cytometry); format: cell-based; details: WM2664 (CDK4/6-dependent), 24 hours treatment
Description: as §2, §3, §4

[9] = test system: human RB-null melanoma cells (A2058); test: as above; format: cell-based; details: A2058 (RB-null, CDK4/6-independent), 24 hours treatment
Description: as §2, §3, §4

[10] = test system: human RB-null melanoma cells (A2058); test: Cell proliferation assay (WST-1 or CellTiter-Glo) after chemotherapeutic
Description: as §7, §8, §9

[11] = test system: telomerized human diploid fibroblast (tHDF) cells (HS68)
Description: as §7, §8, §9

[12] = test system: human melanoma cells lacking INK4a/ARF (WM2664); test: Cell proliferation assay (WST-1 or CellTiter-Glo) after chemotherapeutic
Description: as §7, §8, §9

Q: Which results are given for CN[C@@H]1C[C@H]2O[C@@](C)([C@@H]1OC)n1c3ccccc3c3c4c(c5c6ccccc6n2c5c31)C(=O)NC4 [staurosporine]?
A: effect on chemotherapy-induced cytotoxicity (adenylate kinase release) [1]: enhances chemotherapy-induced cytotoxicity in a cyclin-dependent kinase 4/6 (CDK4/6)-independent manner; effect on chemotherapy-induced cytotoxicity (adenylate kinase release) [2]: enhances chemotherapy-induced cytotoxicity in a cyclin-dependent kinase 4/6 (CDK4/6)-independent manner; chemoprotective effects against doxorubicin, carboplatin, etoposide (cell viability, CellTiter-Glo) [3]: does not provide protection; chemoprotective effects against doxorubicin, carboplatin, etoposide (cell viability, CellTiter-Glo) ([3]; listed as Staurosporine): does not appear to protect; cell cycle effect [4]: substantially pure G1 arrest; cell cycle effect ([4]; listed as Staurosporine): appears to induce G1 cell cycle arrest; effect on chemotherapy-induced cytotoxicity (adenylate kinase release) [5]: enhances chemotherapy-induced cytotoxicity in a cyclin-dependent kinase 4/6 (CDK4/6)-independent manner; protection from doxorubicin-, carboplatin- or etoposide-induced DNA damage (gamma-H2AX) [6]: does not protect; protection from doxorubicin-, carboplatin- or etoposide-induced DNA damage (gamma-H2AX) ([6]; listed as Staurosporine): does not appear to protect; protection from doxorubicin-, carboplatin- or etoposide-induced DNA damage (gamma-H2AX) [7]: does not protect; protection from doxorubicin-, carboplatin- or etoposide-induced DNA damage (gamma-H2AX) ([7]; listed as Staurosporine): does not appear to protect

Q: What does the source list for CCC(CO)Nc1nc(NCc2ccccc2)c2ncn(C(C)C)c2n1 (stereo not shown) [Roscovitine]?
A: chemoprotective effects against doxorubicin (cell viability, CellTiter-Glo) ([3]; 16 hours pretreatment, DOX 370 nM 8 hours): absence of chemoprotective effects; cell cycle effect [8]: does not induce G1 arrest; cell cycle effect ([8]; listed as roscovitine): did not induce a clean G1 arrest; cell cycle effect [4]: does not induce G1 arrest; cell cycle effect ([4]; listed as roscovitine): did not induce a clean G1 arrest; cell cycle effect [9]: did not induce a clean G1 arrest; protection from chemotherapy-induced cytotoxicity (cell proliferation assays) ([10]; A2058 (CDK4/6-independent), pretreatment prior to carboplatin, etoposide or doxorubicin): failed to protect; chemoprotective effects against doxorubicin (cell viability, CellTiter-Glo) ([10]; A2058, 16 hours pretreatment, DOX 370 nM 8 hours, viability after 7 days): absence of chemoprotective effects; protection from chemotherapy-induced cytotoxicity (cell proliferation assays) [11]: failed to protect; protection from chemotherapy-induced cytotoxicity (cell proliferation assays) ([12]; WM2664 (CDK4/6-dependent), pretreatment prior to carboplatin, etoposide or doxorubicin): failed to protect; chemoprotective effects against doxorubicin (cell viability, CellTiter-Glo) ([12]; WM2664, 16 hours pretreatment, DOX 122 nM 8 hours, viability after 7 days): absence of chemoprotective effects

— patent publication US20150111896A1, “HEMATOPOIETIC PROTECTION AGAINST CHEMOTHERAPEUTIC COMPOUNDS USING SELECTIVE CYCLIN-DEPENDENT KINASE 4/6 INHIBITORS” (The University of North Carolina at Chapel Hill, priority 2008, published 2015)
